Measured values taken from patent US11780868B1, “Homoleptic metal coordination complexes as antifungal agents” (King Abdulaziz University, priority 2023, dated 2023).

What was measured:
[1] = system: C. albicans cells; assay: TUNEL assay for DNA fragmentation; format: cell-based, Candida albicans; conditions: 0.5×MIC and 1×MIC, concentration dependent
Description: To examine the effect of C1 on the induction of cellular apoptosis in C. albicans cells, crucial apoptotic markers were observed. For this purpose, C. albicans 4251 and C. albicans 5112 cells were subjected to protoplast preparation by utilizing a method described previously by Srivastava et al. in 2020 through their research study. Briefly, cells were grown overnight and were exposed for 4 h with different concentrations of C1 (0.5×MIC and 1×MIC) and H2O2 (positive control) whereas, untreated cells were used as a negative control. Later on, the cells were washed and incubated for 10 min at room temperature in protoplast buffer-1 (1M sorbitol, 0.05M tris base, 0.01M MgCl2, 0.03M DTT, pH 7.4). The cells were spun at 1500 rpm for 5 min and the pellet was resuspended in protoplast buffer-2 (1M sorbitol, 0.05M tris base, 0.01M MgCl2, 0.001M DTT, pH 7.4) supplemented with lyticase enzyme (1 μg/mL) and incubated for 1 h at room temperature. […]
We further performed an assay to detect the presence of DNA damage in C. albicans, an indicator of late-stage apoptosis. […] The protoplasts were again washed with PBS and all the samples were examined under a fluorescence microscope using Zeiss Laser Scanning Confocal Microscope (LSM) 780 (Carl Zeiss Microscopy, Jena, Germany). […]

[2] = system: cytochrome c oxidase; assay: Cytochrome c oxidase activity assay; format: cell-based
Description: To examine the effect of C1 on the induction of cellular apoptosis in C. albicans cells, crucial apoptotic markers were observed. For this purpose, C. albicans 4251 and C. albicans 5112 cells were subjected to protoplast preparation by utilizing a method described previously by Srivastava et al. in 2020 through their research study. Briefly, cells were grown overnight and were exposed for 4 h with different concentrations of C1 (0.5×MIC and 1×MIC) and H2O2 (positive control) whereas, untreated cells were used as a negative control. Later on, the cells were washed and incubated for 10 min at room temperature in protoplast buffer-1 (1M sorbitol, 0.05M tris base, 0.01M MgCl2, 0.03M DTT, pH 7.4). The cells were spun at 1500 rpm for 5 min and the pellet was resuspended in protoplast buffer-2 (1M sorbitol, 0.05M tris base, 0.01M MgCl2, 0.001M DTT, pH 7.4) supplemented with lyticase enzyme (1 μg/mL) and incubated for 1 h at room temperature. Afterwards, the cell suspension was again centrifuged, and the pellet was resuspended and incubated for 20 min at room temperature in protoplast buffer-3 (1M sorbitol, 0.05M tris base, 0.01M MgCl2, pH 7.4). A final washing (1500 rpm for 5 min) was given to the cells and the pellet consisting of C. albicans protoplasts was resuspended in fresh PBS and was stored at 4° C. until further use.
The role of C1 in the modulating cytochrome c oxidase activity in C. albicans was investigated. The mitochondria from C. albicans 4251 and C. albicans 5112 were isolated using Yeast Mitochondria Isolation Kit—MITOISO3 (Sigma-Aldrich St. Louis, MO, U.S.A.) and then the Cytochrome c oxidase assay kit (ScienCell, Cat. No. 8278, CA, USA) was used to detect the cytochrome c oxidase activity in the cells following the manufacturer's instructions. Briefly, the C. albicans protoplasts were homogenized and the homogenate was resuspended and centrifuged in storage buffer (1×, 1 mL) at 6,500×g at 4° C. (10 min). The supernatant was discarded and resuspended in 200 μL of storage buffer (1×). The TCA Lowry method was utilized for determining the protein concentration present in the sample. Later on, the estimation of cytochrome c oxidase activity was done by preparing an assay mixture (Assay Buffer, 940 μL; n-dodecyl β-D-maltoside solution, 10 μL; mitochondrial protein, 2 μg) in a cuvette and then adding cytochrome c substrate solution (50 μL, provided in the kit) to it. Any change in absorbance was measured on a kinetic program (550 nm; every 30 seconds with an interval of 5 seconds) by using a spectrophotometer (UV-1800, Shimadzu Corporation, Japan).

[3] = system: Flz resistant strains of C. albicans; assay: Broth microdilution MIC/MFC, range over strains; format: cell-based, Candida albicans
Description: (§1) In this work, nine strains of C. albicans procured from Charlotte Maxeke Johannesburg Academic Hospital under ethical clearance number M000402 were employed (Table 1). All the C. albicans strains were preserved at −70° C. deep freezer in 50% (v/v) anhydrous glycerol (Sigma-Aldrich St. Louis, MO, U.S.A.). For conducting experiments, cultures were revived in Sabouraud Dextrose broth (SDB; Merck, Germany) at 37° C. and 120 rpm for 24 h. Additionally, the RPMI 1640 medium and MOPS (Sigma-Aldrich, USA) were prepared as described by the Clinical and Laboratory Standards Institute (CLSI).
(§2) The activity of C1 against Candida species (n=9) was first estimated in terms of minimum inhibitory concentration (MIC) and minimum fungicidal concentration (MFC). […] Briefly, stock solutions of Flz (used as reference; Sigma-Aldrich St. Louis, MO, U.S.A.) and the synthesized compound was prepared in 1% dimethyl sulfoxide (DMSO; Sigma-Aldrich St. Louis, MO, U.S.A.) and the test concentrations were formulated in RPMI 1640-MOPS medium. […] Growth was quantified by reading the optical density at 620 nm in a UV-1800 SHIMADZU spectrophotometer (Shimadzu Corporation, Japan). The MIC was determined as the lowest concentration that inhibited the growth of Candida strains. […]

[4] = system: Flz susceptible strains of C. albicans; assay: Broth microdilution MIC/MFC, range over strains; format: cell-based, Candida albicans
Description: as §1, §2

Brc1ccc([O][Co][O]c2ccc(Br)cc2C=Nc2ccc3c(c2)OCCO3)c(C=Nc2ccc3c(c2)OCCO3)c1 [Complex C1, [Co(L)2]]
DNA fragmentation (TUNEL-positive cells) [1]: effective at inducing DNA fragmentation
average percent decrease in cytochrome c oxidase activity ([2]; Flz resistant strain (C. albicans 5112), 0.5×MIC): 14.2%
average percent decrease in cytochrome c oxidase activity ([2]; Flz resistant strain (C. albicans 5112), 1×MIC): 47.53%
average percent decrease in cytochrome c oxidase activity ([2]; Flz sensitive strain (C. albicans 4251), 0.5×MIC): 22.61%
average percent decrease in cytochrome c oxidase activity ([2]; Flz sensitive strain (C. albicans 4251), 1×MIC): 51.3%
MIC value range [3]: 9.76 to 19.53 µg/mL
MIC value range [4]: 1.22 to 4.88 µg/mL
